Each structure is given as a SMILES string.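 A five-concentration, 48-hour dose response in 96-well plates underlies each endpoint, interpolated linearly between surrounding concentrations. GI50: concentration for 50% inhibition of growth. At the TGI there is no net growth.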

Common to all, as to assay: NCI-60 cell line screen, 48 h
In assay [1] the test system is SNB-75 CNS.
Assay [2] concerns NCI-H226 lung.
The test system of assay [3] is HOP-92 NSCLC.
For assay [4], the system named is UO-31 renal.
Assay [5] deals with SF-295 CNS.
The test system of assay [6] is OVCAR-3 ovarian.
For assay [7], the system named is CAKI-1 renal.
Assay [8] relates to SW-620 colon.
For assay [9], the system named is HS 578T breast.
Assay [10] has as its system MDA-MB-435.

Consider `COC(=O)[C@]12CC[C@@H](C)[C@H](C)[C@@H]1C1=CC[C@@H]3[C@@]4(C)C(c5ncon5)=C[C@@](C)(CO)C4=CC[C@@]3(C)[C@]1(C)CC2`, for which the GI50 in assay [1] was 1.62 µM; in assay [2], 1.99 µM; in assay [3], 1.98 µM; in assay [4], 1.69 µM; in assay [5], 2.11 µM; in assay [6] it was 1.79 µM. Further, the GI50 in assay [7] was 4.06 µM; in assay [8] it was 1.96 µM; in [9], 2.52 µM; in [10], 1.72 µM. Moreover, the TGI in assay [1] was determined as 4.33 µM; in assay [2] it was 4.4 µM; in [3], 4.04 µM; in assay [4] it was 3.2 µM; in assay [5] it was 5.03 µM; in [6], 3.25 µM. Moreover, the TGI was found to be 26 µM in assay [7], 3.85 µM in [8], 8.03 µM in assay [9] and 3.36 µM in assay [10].
For `COC(=O)c1[nH]nc(-c2ccccc2)c1N1CCCCC1`, the GI50 was 30.6 µM in assay [1]; 13.2 µM in assay [2]; 19 µM in assay [3]; 65.4 µM in assay [4]; 45.7 µM in assay [5]; 40.7 µM in [6]. Also, the GI50 in [7] was 62.4 µM; in assay [8], 75.6 µM; in assay [9], 22.4 µM; in assay [10] it was 64.7 µM. The TGI in [1] was 84.7 µM; in [2], 36.5 µM; in assay [3], 64 µM; in assay [4], over 100 µM; in assay [5], over 100 µM; in assay [6], over 100 µM. The TGI is 87.8 µM in assay [7], over 100 µM in [8], 64.7 µM in assay [9] and over 100 µM in [10].
For `O=C1C[C@@H](c2ccccc2)NCCCCN(O)CCCN1`, the TGI in assay [1], in assay [2], in assay [3], in [4], in [5] and in [6] was over 100 µM throughout. Further, the TGI in assay [7], in assay [8], in assay [9] and in assay [10] was over 100 µM throughout.
Turning to `c1ccc(-c2n(Cc3ccc4ccccc4n3)c3ccccc3[n+]2Cc2ccc3ccccc3n2)cc1`, the GI50 in [1] is 0.229 µM; in assay [2], 0.424 µM; in assay [3] it was 0.143 µM; in [4], 1.45 µM; in assay [5], 0.358 µM; in assay [6], 0.311 µM. In addition, the GI50 was 1.36 µM in assay [7], 0.359 µM in assay [8], 0.391 µM in assay [9] and 0.337 µM in assay [10]. Also, the TGI turned out to be 0.937 µM in assay [1]; 2.64 µM in [2]; 0.563 µM in [3]; 2.89 µM in [4]; 1.39 µM in assay [5]; 1.38 µM in assay [6]. Besides, the TGI in [7] came to 3.37 µM; in assay [8], 1.69 µM; in assay [9], 2.28 µM; in assay [10], 1.22 µM.
Regarding `O=C(Cc1ccccc1)Nc1nnc(CCSCCc2nnc(NC(=O)Cc3ccccc3)s2)s1`, the GI50 in assay [1] was 5.18 µM; in [2] it was 29.9 µM; in assay [3] it was 4.5 µM; in assay [4], 81.8 µM; in assay [5] it was 4.38 µM; in assay [6], 6.16 µM. Moreover, the GI50 in [7] is 11.7 µM; in assay [8], over 100 µM; in assay [9] it was 1.93 µM; in assay [10], 58.2 µM. The TGI in [1] is 24.3 µM; in assay [2], 97.4 µM; in assay [3] it was 25.8 µM; in assay [4] it was over 100 µM; in assay [5] it was 36.6 µM; in [6], 49.2 µM. Moreover, the TGI in [7] is 66 µM; in assay [8] it was over 100 µM; in assay [9] it was 79.9 µM; in [10], over 100 µM.
Regarding `c1ccc(Cn2cc3c(c2)-c2oncc2CC3)cc1`, the GI50 in assay [1] was 1.11 µM; in assay [2], 5.91 µM; in assay [3], 7.64 µM; in assay [4], 4.23 µM; in assay [5] it was 0.818 µM; in assay [6], 0.457 µM. Further, the GI50 in [7] is 1.97 µM; in assay [8] it was 0.428 µM; in [9], 0.887 µM; in assay [10], 0.311 µM. Moreover, the TGI in [1] is 27 µM; in [2], 99.1 µM; in assay [3] it was over 91.4 µM; in assay [4], 97.1 µM; in assay [5] it was over 20.6 µM; in assay [6], 2.21 µM. Besides, the TGI in assay [7] was over 76.3 µM; in assay [8] it was over 100 µM; in assay [9], 10.7 µM; in assay [10], over 100 µM.
As to `Cc1cc(-c2ccccc2)c(C)n1Cc1ccc(Cl)cc1`, the GI50 in assay [1] was 3.17 µM; in assay [2], 26.3 µM; in assay [3], 1.51 µM; in assay [4], 5.45 µM; in assay [5], 2.74 µM; in [6], 3.54 µM. Also, the GI50 in assay [7] is 3.66 µM; in assay [8], 3.06 µM; in assay [9], 4.43 µM; in assay [10] it was 0.368 µM. In addition, the TGI in [1] is over 100 µM; in assay [2], over 100 µM; in assay [3], 9.28 µM; in [4], over 100 µM; in [5], 9.33 µM; in [6], 23.5 µM. Moreover, the TGI in [7] was over 100 µM; in [8], over 100 µM; in assay [9], over 100 µM; in assay [10], 2.55 µM.
Take `Clc1ccccc1-c1nc2ccccc2[nH]1`: the GI50 in assay [1] is over 100 µM; in assay [2], over 100 µM; in assay [3] it was 42.1 µM; in assay [4], 90.8 µM; in assay [5], 43.3 µM; in assay [6], over 100 µM. In addition, the GI50 in assay [7], in [8], in assay [9] and in [10] was over 100 µM throughout. Moreover, the TGI in assay [1], in [2], in [3], in assay [4], in [5] and in assay [6] was over 100 µM in each case. In addition, the TGI in assay [7], in assay [8], in assay [9] and in assay [10] was over 100 µM throughout.
As to `COc1cc(C(=O)/C=C/c2c(-c3ccc(F)cc3)nc3sccn23)cc(OC)c1OC`, the GI50 in assay [1] was 1.83 µM; in assay [2], 2.09 µM; in [3], 1.7 µM; in assay [4], 2.87 µM; in [5], 2.37 µM; in assay [6], 2.27 µM. The GI50 in assay [7] was 0.405 µM; in assay [8], 2.92 µM; in assay [9], 2.05 µM; in [10] it was 2.13 µM. Besides, the TGI in assay [1] was 7.31 µM; in [2], 9.99 µM; in assay [4], over 27 µM; in [5] it was 10.6 µM; in assay [6], 6.81 µM; in [7], over 30 µM. The TGI is 11.2 µM in [8], 6.44 µM in assay [9] and 7.92 µM in assay [10].
Take `Cc1ccc(C(=O)Nc2ccc(CN3CCN(C)CC3)c(C(F)(F)F)c2)cc1C#Cc1cncc2ncccc12`: the GI50 in assay [1] was 0.264 µM; in assay [2], 0.625 µM; in assay [3], 0.147 µM; in assay [4] it was 0.191 µM; in assay [5] it was 1.2 µM; in assay [6] it was 0.558 µM. In addition, the GI50 in assay [7] is 0.222 µM; in assay [8], 0.443 µM; in assay [9], 0.232 µM; in assay [10], 0.286 µM. In addition, the TGI in assay [1] is 1.39 µM; in [2] it was 6.19 µM; in [3] it was 1.28 µM; in assay [4] it was 0.903 µM; in [5], 16.2 µM; in assay [6] it was 14.7 µM. For the same molecule, the TGI in [7] was determined as 2.52 µM; in assay [8], 1.76 µM; in assay [9], 1.08 µM; in assay [10], 1.56 µM.
On to `CC(=O)OCCC/C(=C\c1ccc2ccccc2c1)[N+](=O)[O-]`, for which the GI50 is 1.45 µM in assay [1]; 1.76 µM in [2]; 1.44 µM in [3]; 1.16 µM in assay [4]; 1.96 µM in [5]; 1.52 µM in assay [6]. In addition, the GI50 is 1.5 µM in assay [7], 1.44 µM in [8], 1.09 µM in assay [9] and 1.53 µM in assay [10]. Further, the TGI in [1] turned out to be 2.99 µM; in assay [2] it was 4.16 µM; in assay [3] it was 3.17 µM; in assay [4], 2.6 µM; in [5], 4.55 µM; in assay [6], 3.08 µM. For the same molecule, the TGI is 3.28 µM in assay [7], 3.27 µM in assay [8], 5.19 µM in assay [9] and 3.77 µM in assay [10].
